This is an account of results in patent US20240408072A1, “COMPOSITION FOR PREVENTING OR TREATING GRAVES' DISEASE COMPRISING COMPOUND CONTAINING AN IMIDAZOPYRIDINE STRUCTURE AS ACTIVE INGREDIENT” (ESGELBIO INC., priority 2021, published 2024).

Experiment [1] has as its system Graves' disease-induced mice. Briefly: Serum thyroxine (T4) in Graves' disease-induced (Ad-TSHR) mice. Type of experiment: in vivo, BALB/c mice. The following applies: 10 mg/kg daily for three weeks, abdominal cavity, FIG. 8. As to the method: (§1) To create a mouse model with induced Graves' disease, 6-week-old female BALB/c mice were used. The thyroid stimulating hormone receptor (TSHR) expressing adenovirus, Ad-TSHR, was purchased from VectorBuilder (Chicago, USA, www.vectorbuilder.com). […] The virus was injected three times at three-week intervals, totaling nine weeks of injections to induce overexpression of TSHR and thereby cause Graves' disease.
(§2) In the Graves' disease-induced mouse model established in <3-1>, the therapeutic effectiveness of the imidazopyridine scaffold-bearing compounds screened in the present disclosure was evaluated.
(§3) After extracting the thyroid glands from each mouse, the sizes of the thyroids were visually compared, and the concentration of thyroxine (T4) in the blood was analyzed.
After administering drugs for three weeks to mice in which Graves' disease was induced by the Ad-TSHR virus over nine weeks, the serum was isolated to measure the concentration of thyroxine (T4).

Experiment [2] deals with Graves' disease-induced mice. In words: Thyroid size in Graves' disease-induced (Ad-TSHR) mice. Type of experiment: in vivo, BALB/c mice. The following applies: 10 mg/kg daily for three weeks, abdominal cavity, vs Ad-TSHR group, FIG. 7. As to the method: as §1, §2, §3
For experiment [3], the system named is TG (thyroglobulin) expression. Briefly: Inhibition of TG expression in SNU760 cells. Type of experiment: cell-based. The following applies: 50 uM, SNU760 Human Thyroid cell lines, FIG. 2. As to the method: (§4) To confirm whether the imidazopyridine scaffold-bearing compounds screened in Example 1 could be used as treatments for Graves' disease, SNU760 Human Thyroid cell lines were treated with various concentrations of each compound and then analyzed their ability to inhibit the expression of TPO (thyroid peroxidase) and TG (thyroglobulin).

For experiment [4], the system named is TPO (thyroid peroxidase) expression. Briefly: Inhibition of TPO expression in SNU760 cells. Type of experiment: cell-based. The following applies: 50 uM, SNU760 Human Thyroid cell lines, FIG. 2. As to the method: as §4
Another experiment concerns the target Human MPO (Homo sapiens (Human), UniProt P05164). Briefly: Myeloperoxidase (MPO) inhibition IC50 screening. Type of experiment: biochemical. An excerpt: To discover new therapeutics for the treatment of Graves' disease, the inventors screened compounds for inhibition activity against myeloperoxidase (MPO). The screening process is schematically represented in FIG. 1. Use was made of approximately 7,000 compounds for the screening.

The next experiment concerns the target HL-60 MPO (Homo sapiens (Human), UniProt P05164). In words: HL-60 MPO inhibition, drugs treated to media. Type of experiment: cell-based. As to the method:
The screening of compounds for MPO inhibition activity was conducted in three stages.

A further experiment concerns the target thyroid peroxidase (TPO) (Homo sapiens (Human), UniProt P07202). In words: Thyroid peroxidase (TPO) inhibition IC50. Type of experiment: biochemical. The following applies: Table 3.

Each structure is given as a SMILES string. “Also recorded” adds a separate entry of the source. Like-named read-outs stand apart in the source and are kept apart here.

HL-60 MPO, sequence (P05164 49-745): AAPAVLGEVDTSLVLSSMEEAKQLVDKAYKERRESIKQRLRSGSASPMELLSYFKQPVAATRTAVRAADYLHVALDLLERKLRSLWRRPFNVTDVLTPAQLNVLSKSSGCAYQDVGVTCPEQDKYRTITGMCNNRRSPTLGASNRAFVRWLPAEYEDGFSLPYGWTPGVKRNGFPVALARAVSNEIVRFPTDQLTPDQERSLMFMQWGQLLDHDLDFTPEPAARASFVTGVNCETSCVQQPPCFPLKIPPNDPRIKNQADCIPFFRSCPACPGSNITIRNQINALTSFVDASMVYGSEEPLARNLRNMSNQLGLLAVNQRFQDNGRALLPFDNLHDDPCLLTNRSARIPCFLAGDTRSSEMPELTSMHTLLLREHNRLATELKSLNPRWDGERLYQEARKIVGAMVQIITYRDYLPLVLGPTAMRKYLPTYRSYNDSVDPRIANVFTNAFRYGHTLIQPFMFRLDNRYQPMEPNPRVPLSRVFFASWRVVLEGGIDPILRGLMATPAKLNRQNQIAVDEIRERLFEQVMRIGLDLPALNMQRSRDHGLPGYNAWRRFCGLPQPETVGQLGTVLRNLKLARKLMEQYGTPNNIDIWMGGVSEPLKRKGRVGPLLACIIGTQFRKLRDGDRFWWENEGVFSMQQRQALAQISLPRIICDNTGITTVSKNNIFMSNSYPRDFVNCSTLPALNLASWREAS
Human MPO, sequence (P05164 49-745): as above
thyroid peroxidase (TPO), sequence (P07202 19-933, species assumed): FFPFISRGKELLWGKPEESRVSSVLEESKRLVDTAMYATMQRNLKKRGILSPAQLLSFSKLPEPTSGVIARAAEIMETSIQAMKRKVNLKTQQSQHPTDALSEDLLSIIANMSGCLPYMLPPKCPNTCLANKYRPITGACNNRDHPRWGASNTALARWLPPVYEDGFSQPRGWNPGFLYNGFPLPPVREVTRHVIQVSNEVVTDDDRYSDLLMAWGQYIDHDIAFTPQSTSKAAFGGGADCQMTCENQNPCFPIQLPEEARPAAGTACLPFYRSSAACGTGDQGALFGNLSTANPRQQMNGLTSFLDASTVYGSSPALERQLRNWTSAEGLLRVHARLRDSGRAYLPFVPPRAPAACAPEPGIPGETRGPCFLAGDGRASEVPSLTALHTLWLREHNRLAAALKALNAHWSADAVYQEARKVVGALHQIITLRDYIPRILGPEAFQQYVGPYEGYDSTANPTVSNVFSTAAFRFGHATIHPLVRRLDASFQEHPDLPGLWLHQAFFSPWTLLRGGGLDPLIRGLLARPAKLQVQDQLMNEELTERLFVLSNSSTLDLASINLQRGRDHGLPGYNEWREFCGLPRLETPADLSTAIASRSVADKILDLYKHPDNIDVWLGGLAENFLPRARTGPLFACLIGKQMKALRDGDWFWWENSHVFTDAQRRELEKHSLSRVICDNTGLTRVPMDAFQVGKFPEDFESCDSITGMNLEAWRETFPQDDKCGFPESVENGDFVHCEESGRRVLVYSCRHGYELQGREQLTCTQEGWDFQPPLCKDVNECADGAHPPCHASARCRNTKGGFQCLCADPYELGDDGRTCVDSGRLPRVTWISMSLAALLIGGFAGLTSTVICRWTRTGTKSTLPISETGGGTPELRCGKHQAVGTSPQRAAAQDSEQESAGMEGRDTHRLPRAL

Regarding `Cc1ccc2nc(-c3cccnc3)c(Nc3ccc4c(c3)OCO4)n2c1` [NE-2-6, N-(2H-1,3-BENZODIOXOL-5-YL)-6-METHYL-2-(PYRIDIN-3-YL) IMIDAZO [1,2-A]PYRIDIN-3-AMINE], in experiment [1], the “serum thyroxine (T4) concentration” value was “significant reduction; also recorded: more effective”. Besides, in experiment [2], the “thyroid size (visually compared)” value is “effectively reduced thyroid sizes; also recorded: nearly restored to normal levels”. The “inhibition of the expression of TG” value in experiment [3] is listed as roughly 100%. Besides, in experiment [4], the “inhibition of the expression of TPO” value was roughly 100%.

The term IC50 denotes the concentration that inhibits the measured activity by half. As usually defined, the inhibition is the change of the read-out against control, counted positive when it falls. Consider `CC(C)OCCn1c(=S)[nH]c(=O)c2[nH]ccc21` [AZD3241], for which the IC50 at Human MPO (Chemical Library 2nd Screening, MPO, read-out: IC50) was 0.021 µM; at Human MPO (Chemical Library 3rd Screening, read-out: IC50 (uM) (Human MPO)), 0.021 µM. Further, the “HL-60 MPO Inhibition (%) (treat to media)” value at HL-60 MPO (2nd Screening) is reported as 0%. Besides, the inhibition at 25 µM on HL-60 MPO (HL-60, 3rd Screening, 25 uM, read-out: HL-60 MPO Inhibition (%) (25 uM of Drugs are treated to media)) is 0%.

Regarding `COc1ccc(-c2nc3cc(C)ccn3c2Nc2ccc3c(c2)OCO3)cc1` [NE-2-7, N-(2H-1,3-BENZODIOXOL-5- YL)-2-(4-METHOXYPHENYL)-7- METHYLIMIDAZO[1,2- A]PYRIDIN-3-AMINE], at thyroid peroxidase (TPO), the IC50 amounted to 0.02 µM.
